Where two headings read alike, the source gives them in different places.
What was measured:
[1] = system: A/WSN/33; experiment: In vitro inhibition assay in BEAS2B cells, virus copies by qRT-PCR; type: cell-based, Influenza A virus
[2] = system: A/WSN/33; type: cell-based, Influenza A virus
[3] = system: A/WSN/33; experiment: Mouse infection, lung M gene copy number by qPCR; type: in vivo, BALB/c female mice; settings: prophylactic, NSC 95397 […], KN-93 10 mg/kg by gavage, lungs 48 h after infection
[4] = system: A/CA/04/09; experiment: Mouse infection, lung infectious virus titer (TCID50 on MDCK cells); type: in vivo, BALB/c female mice; settings: NSC 95397 […], KN-93 10 mg/kg; for lung infectious virus (TCID50) vs control: prophylactic
[5] = system: CAMKIIB gene expression; type: in vivo, mice; settings: 10 mg/kg; 24 h and 48 h post-treatment
[6] = system: BEAS2B cells
[7] = mouse, in vivo
[8] = system: A/WSN/33; settings: previously shown (literature); cited from earlier work
[9] = system: SLC22A8 gene; type: cell-based, human; settings: A549 cells; varying concentrations; 24 and 48 h
[10] = system: A/WSN/33; experiment: Inhibition assay in A549 cells (qRT-PCR copy number, NP staining); type: cell-based, Influenza A virus; settings: A549 cells treated prophylactically or therapeutically, varying concentrations
[11] = system: A/New Calcdonia/20/90; experiment: as above; type: cell-based, Influenza A virus; settings: A549 cells treated prophylactically or therapeutically, varying concentrations
[12] = system: SLC22A8 gene; parameters: species or system BALB/c mice; settings: mouse, in vivo
[13] = system: A/New Calcdonia/20/90; experiment: Influenza replication in lungs of mice (qRT-PCR, TCID50); type: in vivo, BALB/c mice; settings: mice treated with 10 or 200 mg/kg
Procedure: (§1) Animals. BALB/c female mice (6-8 week-old) were obtained from NCI. All experiments and procedures were Institutional Animal Care and Use Committee (IACUC) approved by the IACUC of UGA. The animals were kept alone in cages. They were allowed free access to water and food both before and during the experiments. All experiments were performed with 5 mice per group and repeated independently at least twice.
(§2) Drug treatment and infection. Probenecid was dissolved in PBS and injected intraperitoneally at final doses of 10 and 200 mg/kg body weight (about 0.2 ml per animal). Similar studies were done using the same doses but delivering by gavage. […] The treatments were 24 h or 48 h before infection. Prior to infection, mice were anesthetized with Avertin and infected by intranasal instillation with 50 μl of PBS containing 100 PFU of A/WSN/33 or A/New Calcdonia/20/90 influenza virus. The lungs of the mice were collected at 48 hip for qRT-PCR and TCID50. In some studies, Probenecid was administered at 48 h prior to influenza virus infection by tail vein injection (200 ul) where the following groups were evaluated (5 mice/group): Group 1—Probenecid 5.0 mg/kg; Group 2—Probenecid 0.5 mg/kg; Group 3—Probenecid 0.05 mg/kg; Group 4—Positive Control—KN93 (10 mg/kg); Group 5—Negative Control (PBS); Group 6—Probenecid 5.0 mg/kg no infection (gene silencing only).
(§3) Detection of virus replication. qRT-PCR and TCID50 of the lungs. The lungs of infected animals were longitudinally sectioned. One half of the lung was into TRizol (Invitrogen, Carlsbad, Calif., USA) for isolating total RNA. Another half lung was into MEM/without serum media for TCIT50. The qRT-PCR performance for both of virus replication and the gene expression was like in vitro.

[14] = system: A/WSN/33; experiment: as above; type: in vivo, BALB/c mice
Procedure: as §1, §2, §3

[15] = system: A549 cells
[16] = in vivo; cited from earlier work

COc1ccc(S(=O)(=O)N(CCO)c2ccccc2CN(C)C/C=C/c2ccc(Cl)cc2)cc1 [KN-93]
inhibition at 250 µM ([1]; Influenza A virus, WSN, BEAS-2B, read-out: inhibition of virus replication): > 80%
dose dependence of inhibition of virus replication ([1]; pretreatment 1 h, […]): inhibited influenza replication in a dose-dependent manner
number of NP-staining cells compared to control [2]: not perceptibly affected
lung influenza M gene copy number vs control ([3]; 24 h before infection): significantly (p<0.05) shielded
lung influenza M gene copy number vs control ([3]; 48 h before infection): not statistically significant
lung infectious virus (TCID50) vs control ([4]; 24 h before infection): significantly (p<0.05) different than control
lung infectious virus (TCID50) vs control ([4]; 48 h before infection): not statistically significant
reduction of lung virus titers vs control ([4]; treatment at 24 h or 48 hpi): no significant (p<0.05) effect
CAMKIIB gene expression in lungs [5]: down-modulation
cell cytotoxicity [6]: insignificant
cell cytotoxicity ([6]; 250 uM): negligible
cell cytotoxicity compared to the control ([6]; 500 uM (highest drug concentration)): 20-30%
toxicity in mice treated with drugs only [7]: no apparent toxicity
influenza viral replication in MDCK cells [8]: inhibits A/WSN/33 influenza viral replication in a dose-dependent manner

CCCN(CCC)S(=O)(=O)c1ccc(C(=O)O)cc1 [Probenecid, 4-(dipropylsulfamoyl)benzoic acid]
SLC22A8 gene expression [9]: effectively reduce SLC22A8 gene expression
influenza virus replication [10]: refractory to influenza virus replication
influenza virus replication [11]: refractory to influenza virus replication
SLC22A8 gene expression [12]: effectively reduce SLC22A8 gene expression
influenza virus replication in lungs [13]: refractory to influenza virus replication
efficacy relative to Tamiflu ([14]; 10 mg/kg Probenecid, -24 or +24 h): as effective as Tamiflu treatment
influenza virus replication in lungs ([14]; mice treated prophylactically or therapeutically, varying concentrations): refractory to influenza virus replication
toxicity [15]: without causing toxicity
increase of blood concentrations of Tamiflu (oseltamivir) [16]: more than double

From patent US20140121237A1, “Methods for Inhibiting Virus Replication” (priority 2011, published 2014)
